# From patent US6821926B1, “Carbamoyl triazolinone based herbicide” (Bayer Aktiengesellschaft, priority 1999, dated 2004)
# Legend:
# Test in all cases: Pre-emergence/greenhouse herbicidal test, % damage
# Type in all cases: in vivo
# [1] = test system: Cassia; settings: pre-emergence, after approximately 3 weeks
# Experimental: (§1) Customary formulations of the respective active compounds were used. Butafenacil was employed as Inspire® 100 EC, azafenidin as an 80 WG formulation and the compound of the formula (I-1) as a 70 WG formulation. The active compounds were used to prepare an aqueous spray mixture with 0.1% of Renex-36 as additive. Pre-emergence/greenhouse Seeds of the test plants are sown in standard soil. After 24 hours, the test compound or the combination of test compounds, is sprayed onto the soil surface in such a manner as to apply the amount of active compound per unit area desired in each case. The concentration of the spray mixture is chosen so that the desired amounts of active compound desired are applied in 500 l of water per ha. After the spray application, the plant containers are placed in the greenhouse under constant light and temperature conditions. After approximately 3 weeks, the degree of damage of the crop plants is scored in % damage in comparison with the development of the untreated control. The figures denote: 0%=no damage (as untreated control) 100%=Total destruction/damage
# [2] = test system: Alopecurus; settings: pre-emergence, after approximately 3 weeks
# Experimental: as §1
# [3] = test system: Solanum; settings: after approximately 3 weeks
# Experimental: as §1
# [4] = test system: Digitaria; settings: pre-emergence, after approximately 3 weeks
# Experimental: as §1
# [5] = test system: Abutilon; settings: pre-emergence, after approximately 3 weeks
# Experimental: as §1
# [6] = test system: Setaria; settings: pre-emergence, after approximately 3 weeks
# Experimental: as §1
# [7] = test system: Xanthium; settings: pre-emergence, after approximately 3 weeks
# Experimental: as §1
# [8] = test system: Datura; settings: pre-emergence, after approximately 3 weeks
# Experimental: as §1
# [9] = test system: Ipomea; settings: pre-emergence, after approximately 3 weeks
# Experimental: as §1
# [10] = test system: Galium; settings: pre-emergence, after approximately 3 weeks
# Experimental: as §1
smiles,measurement,setting,value
"CC(C)c1nn(C(=O)NC(C)(C)C)c(=O)n1N [Compound (I-1), 4-amino-5-(1-methyl-ethyl)-2-(1,1-dimethyl-ethyl-aminocarbonyl)-2,4-dihydro-3H-1,2,4-triazol-3-one]",Cassia observed,[1]; 60 g ai/ha,30%
same,Alopecurus observed,[2]; 125 g ai/ha,0%
same,Solanum observed,"[3]; pre-emergence, 60 g ai/ha",90%
same,Digitaria observed,[4]; 125 g ai/ha,40%
same,Abutilon observed,[5]; 60 g ai/ha,50%
same,Setaria observed,[6]; 125 g ai/ha,0%
same,Xanthium observed,[7]; 125 g ai/ha,90%
same,Datura observed,[8]; 60 g ai/ha,50%
same,Ipomea observed,[9]; 125 g ai/ha,50%
same,Galium observed,[10]; 125 g ai/ha,80%
"C=CCOC(=O)C(C)(C)OC(=O)c1cc(-n2c(=O)cc(C(F)(F)F)n(C)c2=O)ccc1Cl [Butafenacil, [1,1-dimethyl-2-oxo-2-(2-propenyloxy)]-ethyl 2-chloro-5-(3,6-dihydro-3-methyl-2,6-dioxo-4-trifluoromethyl-1(2H)-pyrimidinyl)-benzoate]",Cassia observed,[1]; 0.5 g ai/ha,0%
same,Alopecurus observed,[2]; 0.5 g ai/ha,0%
same,Alopecurus observed,[2]; 2 g ai/ha,0%
same,Solanum observed,"[3]; pre-emergence, 0,5 g ai/ha",0%
same,Solanum observed,"[3]; pre-emergence, 1 g ai/ha",0%
same,Solanum observed,"[3]; pre-emergence, 2 g ai/ha",0%
same,Digitaria observed,[4]; 0.5 g ai/ha,20%
same,Digitaria observed,[4]; 1 g ai/ha,20%
same,Abutilon observed,[5]; 2 g ai/ha,30%
same,Setaria observed,[6]; 0.5 g ai/ha,0%
same,Setaria observed,[6]; 2 g ai/ha,0%
same,Xanthium observed,[7]; 2 g ai/ha,0%
same,Datura observed,[8]; 2 g ai/ha,30%
same,Ipomea observed,[9]; 0.5 g ai/ha,0%
same,Galium observed,[10]; 1 g ai/ha,0%
